Activity calls are given as the source filed them. The rule behind the calls is not given here.
Tests used:
Deinococcus radiodurans [1] = assay: Activity of Deinococcus radiodurans homoisocitrate dehydrogenase
Deinococcus radiodurans [2] = assay: Ratio of kcat/km of Deinococcus radiodurans homoisocitrate dehydrogenase
[3] = target: Homoisocitrate dehydrogenase, mitochondrial (Saccharomyces cerevisiae S288c) (UniProt P40495); assay: Activity of recombinant Saccharomyces cerevisiae homoisocitrate dehydrogenase expressed in Escherichia coli Rosetta cells above 10 mM
Deinococcus radiodurans [4] = assay: Activity of Deinococcus radiodurans homoisocitrate dehydrogenase above 10 mM

Sequence of Homoisocitrate dehydrogenase, mitochondrial (Saccharomyces cerevisiae S288c) (P40495 whole entry): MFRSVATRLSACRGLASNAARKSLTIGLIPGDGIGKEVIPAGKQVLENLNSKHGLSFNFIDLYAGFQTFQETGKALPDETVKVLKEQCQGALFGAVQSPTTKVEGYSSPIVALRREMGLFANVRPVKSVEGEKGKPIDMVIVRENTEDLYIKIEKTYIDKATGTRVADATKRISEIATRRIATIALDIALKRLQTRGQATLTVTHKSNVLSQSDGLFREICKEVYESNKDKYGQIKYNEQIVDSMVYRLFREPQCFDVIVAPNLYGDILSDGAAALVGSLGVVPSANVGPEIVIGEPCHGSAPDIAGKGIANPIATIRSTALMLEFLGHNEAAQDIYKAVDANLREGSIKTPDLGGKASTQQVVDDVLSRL

C=CC[C@H](C(=O)O)[C@@H](O)C(=O)O
Km (Deinococcus radiodurans [1]): 2800 µM
kcat (Deinococcus radiodurans [1]): 37 s⁻¹
kcat/Km (Deinococcus radiodurans [2]): 13000 M⁻¹ s⁻¹

O=C(O)CCC[C@H](C(=O)O)[C@@H](O)C(=O)O
Km (Deinococcus radiodurans [1]): 200 µM
kcat (Deinococcus radiodurans [1]): 40 s⁻¹
kcat/Km (Deinococcus radiodurans [2]): 200000 M⁻¹ s⁻¹

O=C(O)C[C@H](C(=O)O)[C@@H](O)C(=O)O
Activity [3]: inactive

C=CCCC[C@H](C(=O)O)[C@@H](O)C(=O)O
Km (Deinococcus radiodurans [1]): 2700 µM
kcat (Deinococcus radiodurans [1]): 3 s⁻¹
kcat/Km (Deinococcus radiodurans [2]): 1100 M⁻¹ s⁻¹

C[C@H](C(=O)O)[C@@H](O)C(=O)O
Km (Deinococcus radiodurans [1]): 3600 µM
kcat (Deinococcus radiodurans [1]): 19 s⁻¹
kcat/Km (Deinococcus radiodurans [2]): 5300 M⁻¹ s⁻¹

O=C(O)C[C@@H](O)C(=O)O
Activity [3]: inactive
Activity (Deinococcus radiodurans [4]): inactive

CC(C)[C@H](C(=O)O)[C@@H](O)C(=O)O
Activity [3]: inactive

O=C(O)CCCC[C@H](C(=O)O)[C@@H](O)C(=O)O
Km (Deinococcus radiodurans [1]): 140 µM
kcat (Deinococcus radiodurans [1]): 40 s⁻¹
kcat/Km (Deinococcus radiodurans [2]): 290000 M⁻¹ s⁻¹

O=C(O)[C@@H](CCCCO)[C@@H](O)C(=O)O
Km (Deinococcus radiodurans [1]): 470 µM
kcat (Deinococcus radiodurans [1]): 28 s⁻¹
kcat/Km (Deinococcus radiodurans [2]): 60000 M⁻¹ s⁻¹

O=C(O)[C@@H](O)[C@@H](O)C(=O)O
Activity [3]: inactive
Activity (Deinococcus radiodurans [4]): inactive

CCC[C@H](C(=O)O)[C@@H](O)C(=O)O
Km (Deinococcus radiodurans [1]): 780 µM
kcat (Deinococcus radiodurans [1]): 53 s⁻¹
kcat/Km (Deinococcus radiodurans [2]): 68000 M⁻¹ s⁻¹

O=C(O)[C@@H](CCCO)[C@@H](O)C(=O)O
Km (Deinococcus radiodurans [1]): 510 µM
kcat (Deinococcus radiodurans [1]): 29 s⁻¹
kcat/Km (Deinococcus radiodurans [2]): 200000 M⁻¹ s⁻¹

NCCC[C@H](C(=O)O)[C@@H](O)C(=O)O
Activity [3]: inactive
Activity (Deinococcus radiodurans [4]): inactive

C=C[C@H](C(=O)O)[C@@H](O)C(=O)O
Km (Deinococcus radiodurans [1]): 83 µM
kcat (Deinococcus radiodurans [1]): 0.77 s⁻¹
kcat/Km (Deinococcus radiodurans [2]): 9300 M⁻¹ s⁻¹

CC[C@H](C(=O)O)[C@@H](O)C(=O)O
Km (Deinococcus radiodurans [1]): 1000 µM
kcat (Deinococcus radiodurans [1]): 43 s⁻¹
kcat/Km (Deinococcus radiodurans [2]): 430000 M⁻¹ s⁻¹

CCCCC[C@H](C(=O)O)[C@@H](O)C(=O)O
Km (Deinococcus radiodurans [1]): 3200 µM
kcat (Deinococcus radiodurans [1]): 3.7 s⁻¹
kcat/Km (Deinococcus radiodurans [2]): 1200 M⁻¹ s⁻¹

O=C(O)[C@@H](CCO)[C@@H](O)C(=O)O
Km (Deinococcus radiodurans [1]): 590 µM
kcat (Deinococcus radiodurans [1]): 25 s⁻¹
kcat/Km (Deinococcus radiodurans [2]): 42000 M⁻¹ s⁻¹

O=C(O)[C@H](O)[C@@H](C(=O)O)c1ccccc1
Activity [3]: inactive
Activity (Deinococcus radiodurans [4]): inactive

— ChEMBL document CHEMBL1142886, “Substrate specificity analysis and inhibitor design of homoisocitrate dehydrogenase” (Bioorg Med Chem, 2007)
